Assay results: patent US20020028851A1, “Guanylhydrazones and their use to treat inflammatory conditions” (priority 1994, published 2002)
Where two headings read alike, the source gives them in different places.

Tests used:
RAW 264.7 cells [1] = experiment: Whole cell inhibition assay for urea output; type: cell-based, murine; conditions: for urea % suppression of induced production: γIFN+LPS, 18 hours; for IC50: interpolated, γIFN+LPS-activated RAW 264.7, 18 hours, read-out: I.C.50 (in parenthesis), inhibition of urea production
Method: (§1) RAW 264.7 cells are plated in microculture wells at 1×10^6/ml in RPMI 1640 with 10% FBS and otherwise standard culture conditions and allowed to adhere for 5 hours. They are then activated with 25 U/ml γIFN and 0.1 μg/ml LPS in the presence of test inhibitors. The urea concentration present in the supernatant media, after 18 hours of culture, is determined by a colorimetric blood urea nitrogen diacetylmonoxime assay performed on an aliquot of the culture supernatant (Sigma Chem. Co., St. Louis, Mo.) and inhibition is expressed as the percentage urea compared to that of a parallel control culture treated identically except that the concentration of added inhibitor is zero.
(§2) Various concentrations of the test compounds are included in the media of the stimulated RAW 264.7 cells in culture. The concentration of urea and/or nitrite after 18 hours of activated culture is determined and compared to the uninhibited control value obtained from at least one parallel culture. The fractional reduction is calculated for each concentration of inhibitor and the IC50 (concentration giving 50% reduction) is interpolated. Compounds were dissolved in media with mild heat (60° C.). Those with limited solubility were dissolved in base. The concentration of stock solutions of those compounds which were not completely soluble was determined by OD280.

RAW 264.7 cells [2] = experiment: Whole cell inhibition assay for NO (nitrite) output; type: cell-based, murine; conditions: γIFN+LPS, 18 hours
Method: as §1
The production of nitrite is determined by assay of the same tissue culture supernatant by means of a calorimetric assay. Briefly, 4 parts of test solution containing 1% (w/v) sulfanilamide, 0.1% naphthylethylenediamine di-HCl (Griess Reagent), 2.5% H3PO4 and one part media are mixed, incubated for 10 minutes and the absorbance at 560 nm determined. The nitrite concentrations are interpolated from reference curves prepared using NaNO2.
as §2
(§3) This section describes experiments that measure the concentration of Compound No. 14 needed to inhibit arginine uptake and NO output. The techniques employed were described in section 7.1 supra.

RAW 264.7 cells [3] = experiment: Whole cell inhibition assay for arginine uptake; type: cell-based, murine; conditions: γIFN+LPS, 8 hours
Method: In the embodiment described in the working example herein, a test population of cells was cultured for about 3 hours so that the cells became firmly adherent. Various concentrations of the potential inhibitors were then added to parallel cultures. One hour later the macrophage stimulators, e.g. including, but not limited to LPS and γIFN, were added. Eighteen hours later the cells were washed in a warm balanced salt solution supplemented with glucose. Carrier-free radiolabelled arginine was added; after 5 minutes, active uptake of arginine was stopped by washing the cell three times with buffer, chilled to 0° C., containing 10 mM unlabeled arginine to displace any externally bound label. The contents of the washed cells are solubilized in 100 μl of formic acid and counted by standard techniques.
RAW 264.7 cells are plated in standard 96-well microculture plates at a concentration of 10^5/well and allowed to adhere for from 2 hours to overnight. The medium is then replaced with medium containing the compound to be tested. One hour later, the medium is supplemented so as to contain 25 U/ml γIFN and 0.1 μg/ml LPS and the cultures incubated a further. The cells are then rinsed twice in HEPES- buffered Krebs salt solution with 0.1% glucose. Carrier-free tetra-^3H-arginine is added to each well (2.5 μCi/well with specific activity of […]) and the active uptake of arginine is allowed to continue for a 5 minute period after which the cells are rapidly cooled to 0° C. by lavage with iced saline containing 10 mM unlabeled arginine to displace any externally bound label. The contents of the washed cells are solubilized in 100 Al of formic acid and counted by standard techniques. In subsequent experiments to determine the acitivity of the inhibitors, incubations were performed for 8 hours.
as §3

[4] = Solubility on preparing test solutions; type: physicochemical; conditions: preparation of test solutions
Method: as §2

## CC(=NNC(=N)N)c1cccc(OCCOc2cccc(C(C)=NNC(=N)N)c2)c1.Cl.Cl [Compound 15, 2,2′-[1,2-ethanediylbis(oxy-3,1-phenyleneethylidyne)] bishydrazinecarboximidamide dihydrochloride]
RAW 264.7 cells [1]; dose 5 μM
  urea % suppression of induced production: 8%
RAW 264.7 cells [1]; dose 15.0 μM
  urea % suppression of induced production: 100%
RAW 264.7 cells [1]; dose 150 μM
  urea % suppression of induced production: 100%
RAW 264.7 cells [1]
  IC50: 10 µM
RAW 264.7 cells [2]; dose 5 μM
  no2/no3 % suppression of induced production: 0%
RAW 264.7 cells [2]; dose 15.0 μM
  no2/no3 % suppression of induced production: 9%
RAW 264.7 cells [2]; dose 150 μM
  no2/no3 % suppression of induced production: 100%
RAW 264.7 cells [3]; dose 5 μM
  arginine transport % suppression of induced peak: 10%
RAW 264.7 cells [3]; dose 15.0 μM
  arginine transport % suppression of induced peak: 35%
RAW 264.7 cells [3]; dose 150 μM
  arginine transport % suppression of induced peak: 100%
[4]
  Dissolved in (solubility): Not soluble;

## CC(=NNC(=N)N)c1cc(C(C)=NNC(=N)N)cc(C(C)=NNC(=N)N)c1 [Compound 1, 1,3,5-triacetylbenzene tris(guanylhydrazone)]
RAW 264.7 cells [1]; Mus musculus, RAW264.7
  IC50: 10 µM
RAW 264.7 cells [1]; dose 10 μM
  urea % suppression of induced production: 60%
RAW 264.7 cells [1]; dose 25 μM
  urea % suppression of induced production: 100%
RAW 264.7 cells [2]; dose 10 μM
  no2/no3 % suppression of induced production: 58%
RAW 264.7 cells [2]; dose 25 μM
  no2/no3 % suppression of induced production: 72%
RAW 264.7 cells [3]; dose 1 μM
  arginine transport % suppression of induced peak: 0%
RAW 264.7 cells [3]; dose 10 μM
  arginine transport % suppression of induced peak: 20%
RAW 264.7 cells [3]; dose 25 μM
  arginine transport % suppression of induced peak: 40%

## CC(=O)c1ccc(NC(=O)NCCN(CCNC(=NNC(=N)N)Nc2ccc(C(C)=O)cc2)CCNC(=NNC(=N)N)Nc2ccc(C(C)=NNC(=N)N)cc2)cc1.Cl.Cl.Cl (hydrate or solvate)
other
  melting point: 224 to 225 °C (dec.)

## CC(=NNC(=N)N)c1ccc(NC(=O)Nc2ccc(C(C)=NNC(=N)N)cc2)cc1 [Compound 8, 4,4′-diacetyldiphenylurea bis(guanylhydrazone)]
RAW 264.7 cells [1]; dose 50 μM
  urea % suppression of induced production: 76%
RAW 264.7 cells [1]; dose 500 μM
  urea % suppression of induced production: 100%
RAW 264.7 cells [1]
  IC50: 50 µM

## CC(=NNC(=N)N)c1cc(NC(=O)CCCC(=O)Nc2cc(C(C)=NNC(=N)N)cc(C(C)=NNC(=N)N)c2)cc(C(C)=NNC(=N)N)c1.Cl.Cl.Cl.Cl [Compound 13, N,N′-bis(3,5-diacetyl-phenyl)pentanediamide tetrakis(amidinohydrazone) tetrahydrochloride]
RAW 264.7 cells [1]; dose 10 μM
  urea % suppression of induced production: 45%
RAW 264.7 cells [1]; dose 25 μM, compound as precipitate
  urea % suppression of induced production: 77%
RAW 264.7 cells [1]; dose 25 μM, compound dissolved as solution
  urea % suppression of induced production: 100%
RAW 264.7 cells [1]; dose 50 μM
  urea % suppression of induced production: 87%
RAW 264.7 cells [1]; dose 500 μM
  urea % suppression of induced production: 100%
RAW 264.7 cells [1]
  IC50: 10 µM
RAW 264.7 cells [2]; dose 25 μM
  no2/no3 % suppression of induced production: 43%
RAW 264.7 cells [2]; dose 500 μM
  no2/no3 % suppression of induced production: 52%
RAW 264.7 cells [3]; dose 25 μM
  arginine transport % suppression of induced peak: 19%
RAW 264.7 cells [3]; dose 50 μM
  arginine transport % suppression of induced peak: 7%
RAW 264.7 cells [3]; dose 500 μM
  arginine transport % suppression of induced peak: 93%

## Cl.Cl.N=C(N)NN=C(CCC(=NNC(=N)N)c1ccccc1)c1ccccc1 [Compound 20, 2,2′-(1,4-diphenyl-1,4-butanediylidene)bishydrazinecarboximidamide dihydrochloride]
RAW 264.7 cells [1]; Mus musculus, RAW264.7
  IC50: 300 µM
RAW 264.7 cells [1]; dose 10 μM
  urea % suppression of induced production: 16%
RAW 264.7 cells [1]; dose 50 μM
  urea % suppression of induced production: 19%
RAW 264.7 cells [1]; dose 200 μM
  urea % suppression of induced production: 38%
RAW 264.7 cells [1]; dose 400 μM
  urea % suppression of induced production: 100%
RAW 264.7 cells [2]; dose 10 μM
  no2/no3 % suppression of induced production: 0%
RAW 264.7 cells [2]; dose 50 μM
  no2/no3 % suppression of induced production: 0%
RAW 264.7 cells [2]; dose 200 μM
  no2/no3 % suppression of induced production: 15%
RAW 264.7 cells [2]; dose 400 μM
  no2/no3 % suppression of induced production: 84%
other
  melting point: 285 to 286 °C

## CC(=O)c1cccc(NC(=NNC(=N)N)c2cc(C(=NNC(=N)N)Nc3cccc(C(C)=O)c3)cc(C(=NNC(=N)N)Nc3cccc(C(C)=O)c3)c2)c1.Cl.Cl.Cl (hydrate or solvate)
other
  melting point: 270 to 275 °C (dec.)

## CC(=NNC(=N)N)c1ccc(O)c(O)c1.Cl [Compound 7, 2-[(3,4-dihydroxyphenyl)-ethylidyne]hydrazinecarboximidamide hydrochloride]
RAW 264.7 cells [1]; dose 10 μM
  urea % suppression of induced production: 23%
RAW 264.7 cells [1]; dose 100 μM
  urea % suppression of induced production: 35%
RAW 264.7 cells [1]; dose 1 mM
  urea % suppression of induced production: 40%
RAW 264.7 cells [1]; dose 2 mM
  urea % suppression of induced production: 55%
RAW 264.7 cells [1]; dose 10 mM
  urea % suppression of induced production: 100%
RAW 264.7 cells [1]
  IC50: 2000 µM

## CC(=O)c1ccc(NC(=O)NCCCN(CCCNC(=NNC(=N)N)Nc2ccc(C(C)=O)cc2)CCCNC(=NNC(=N)N)Nc2ccc(C(C)=NNC(=N)N)cc2)cc1.Cl.Cl.Cl (hydrate or solvate)
other
  melting point: 209 to 210 °C (dec.)

## CC(=O)c1cc(NC(=NNC(=N)N)NCC(C)CCCNC(=NNC(=N)N)Nc2cc(C(C)=NNC(=N)N)cc(C(C)=NNC(=N)N)c2)cc(C(C)=O)c1.Cl.Cl.Cl.Cl (stereo not shown) (hydrate or solvate)
other
  melting point: 258 to 259 °C

## CC(=NNC(=N)N)c1cc(NC(=N)NC(=N)N)cc(C(C)=NNC(=N)N)c1.Cl.Cl.Cl
other
  melting point: 294 to 297 °C

## CC(=O)c1cc(NC(=O)NCCCN(CCCNC(=NNC(=N)N)Nc2cc(C(C)=NNC(=N)N)cc(C(C)=NNC(=N)N)c2)CCCNC(=NNC(=N)N)Nc2cc(C(C)=NNC(=N)N)cc(C(C)=NNC(=N)N)c2)cc(C(C)=O)c1.Cl.Cl.Cl.Cl.Cl.Cl.Cl (hydrate or solvate)
other
  melting point: 250 to 251 °C (dec.)

## CC(=O)c1cccc(NC(CCCC(=NNC(=N)N)Nc2cccc(C(C)=O)c2)=NNC(=N)N)c1.Cl.Cl [Compound 12, N,N′-bis(3-acetylphenyl)pentanediamide bis(amidinohydrazone) dihydrochloride]
other
  melting point: 187 to 191 °C

## CC(=O)c1cc(NC(=O)NCCN(CCNC(=NNC(=N)N)Nc2cc(C(C)=NNC(=N)N)cc(C(C)=NNC(=N)N)c2)CCNC(=NNC(=N)N)Nc2cc(C(C)=NNC(=N)N)cc(C(C)=NNC(=N)N)c2)cc(C(C)=O)c1.Cl.Cl.Cl.Cl.Cl.Cl.Cl (hydrate or solvate)
other
  melting point: 245 to 246 °C (dec.)

## COc1ccc(C=NNC(=N)N)cc1OCCCCCOc1cc(C=NNC(=N)N)ccc1OC.Cl.Cl
other
  melting point: 195 to 198 °C

## CC(=NNC(=N)N)c1ccc(NC(=O)Nc2cc(C(C)=NNC(=N)N)cc(C(C)=NNC(=N)N)c2)cc1.Cl.Cl.Cl [Compound 9, N-(4-acetylphenyl)-N′-(3,5-diacetylphenyl)urea tris(amidinohydrazone) trihydrochloride]
RAW 264.7 cells [1]; dose 1 μM
  urea % suppression of induced production: 0%
RAW 264.7 cells [1]; dose 10 μM
  urea % suppression of induced production: 60%
RAW 264.7 cells [1]; dose 25 μM
  urea % suppression of induced production: 100%
RAW 264.7 cells [1]
  IC50: 10 µM
RAW 264.7 cells [2]; dose 1 μM
  no2/no3 % suppression of induced production: 0%
RAW 264.7 cells [2]; dose 10 μM
  no2/no3 % suppression of induced production: 53%
RAW 264.7 cells [2]; dose 25 μM
  no2/no3 % suppression of induced production: 71%
RAW 264.7 cells [3]; dose 1 μM
  arginine transport % suppression of induced peak: 14%
RAW 264.7 cells [3]; dose 10 μM
  arginine transport % suppression of induced peak: 32%
RAW 264.7 cells [3]; dose 25 μM
  arginine transport % suppression of induced peak: 68%

## CC(=NNC(=N)N)c1cc(NC(=O)c2ccccc2)cc(C(C)=NNC(=N)N)c1.Cl.Cl
other
  melting point: 268 to 272 °C

## CC(=NNC(=N)N)c1ccc(-n2ccnc2)cc1.Cl [Compound 6, 2-([(1H-imidazol-1-yl)-1,4-phenylene]ethylidyne)hydrazinecarboximidamide hydrochloride]
RAW 264.7 cells [1]; dose 50 μM
  urea % suppression of induced production: 0%
RAW 264.7 cells [1]; dose 100 μM
  urea % suppression of induced production: 40%
RAW 264.7 cells [1]; dose 1 mM
  urea % suppression of induced production: 100%
RAW 264.7 cells [1]
  IC50: 250 µM
